In PubChem BioAssay (NCI):
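Five concentrations, 48 hours, 96-well plates. Abbreviation: GI50, concentration required for 50% inhibition of growth. TGI: concentration producing complete growth inhibition.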

Experiments:
Assay in all cases: DTP human tumour cell line panel, 48 h
[1] = test system: HCC-2998 colon
[2] = test system: RXF 393 renal
[3] = test system: DU-145 prostate
[4] = test system: SF-295 CNS
[5] = test system: BT-549 breast
[6] = test system: UACC-257 melanoma
[7] = test system: SK-MEL-28 melanoma
[8] = test system: SW-620 colon
[9] = test system: MDA-MB-435
[10] = test system: SR leukemia
[11] = test system: HT29 colon
[12] = test system: A549 NSCLC
[13] = test system: OVCAR-4 ovarian
[14] = test system: MALME-3M melanoma
[15] = test system: MCF7 breast
[16] = test system: MDA-MB-231 breast
[17] = test system: OVCAR-3 ovarian
[18] = test system: KM12 colon
[19] = test system: SK-MEL-5 melanoma
[20] = test system: NCI-H226 lung
[21] = test system: SNB-19 CNS
[22] = test system: TK-10 renal
[23] = test system: K-562 leukemia
[24] = test system: EKVX NSCLC
[25] = test system: HOP-92 NSCLC
[26] = test system: LOX IMVI melanoma
[27] = test system: T-47D breast
[28] = test system: A498 renal
[29] = test system: NCI-H23 lung
[30] = test system: SN12C renal
[31] = test system: SK-MEL-2 melanoma
[32] = test system: ACHN renal
[33] = test system: M14 melanoma
[34] = test system: HL-60(TB) leukemia
[35] = test system: SF-268 CNS
[36] = test system: SF-539 CNS
[37] = test system: NCI-H522 lung
[38] = test system: UACC-62 melanoma
[39] = test system: HCT-116 colon
[40] = test system: SK-OV-3 ovarian
[41] = test system: OVCAR-5 ovarian
[42] = test system: MOLT-4 leukemia
[43] = test system: IGROV1 ovarian
[44] = test system: HCT-15 colon
[45] = test system: RPMI-8226 leukemia
[46] = test system: HOP-62 NSCLC
[47] = test system: NCI-H460 lung
[48] = test system: NCI/ADR-RES ovarian
[49] = test system: SNB-75 CNS
[50] = test system: CCRF-CEM leukemia
[51] = test system: COLO 205 colon
[52] = test system: OVCAR-8 ovarian
[53] = test system: U251 CNS
[54] = test system: 786-0 renal
[55] = test system: HS 578T breast
[56] = test system: PC-3 prostate
[57] = test system: UO-31 renal

Compound: O=c1ccccc(-c2ccc(Br)cc2)c1O
- GI50 [1]: 425 nM
- TGI [1]: 21.8 µM
- GI50 [2]: 324 nM
- TGI [2]: 8.12 µM
- GI50 [3]: 595 nM
- TGI [3]: 45 µM
- GI50 [4]: 340 nM
- TGI [4]: 16.8 µM
- GI50 [5]: 795 nM
- TGI [5]: 54 µM
- GI50 [6]: 230 nM
- TGI [6]: 8.76 µM
- GI50 [7]: 489 nM
- TGI [7]: 26.4 µM
- GI50 [8]: 410 nM
- TGI [8]: 40.5 µM
- GI50 [9]: 386 nM
- TGI [9]: > 100 µM
- GI50 [10]: 316 nM
- TGI [10]: 17.1 µM
- GI50 [11]: 6.44 µM
- TGI [11]: 36.8 µM
- GI50 [12]: 322 nM
- TGI [12]: 24 µM
- GI50 [13]: 330 nM
- TGI [13]: 27.3 µM
- GI50 [14]: 2180 nM
- TGI [14]: 47.7 µM
- GI50 [15]: 311 nM
- TGI [15]: 46.8 µM
- GI50 [16]: 737 nM
- TGI [16]: 35.7 µM
- GI50 [17]: 412 nM
- TGI [17]: 27.6 µM
- GI50 [18]: 430 nM
- TGI [18]: 22.6 µM
- GI50 [19]: 247 nM
- TGI [19]: 701 nM
- GI50 [20]: 1040 nM
- TGI [20]: 16.6 µM
- GI50 [21]: 459 nM
- TGI [21]: > 100 µM
- GI50 [22]: 541 nM
- TGI [22]: 70.7 µM
- GI50 [23]: 463 nM
- TGI [23]: > 100 µM
- GI50 [24]: 343 nM
- TGI [24]: 15 µM
- GI50 [25]: 6.53 µM
- TGI [25]: 34.1 µM
- GI50 [26]: 323 nM
- TGI [26]: 13.8 µM
- GI50 [27]: 562 nM
- TGI [27]: 41.3 µM
- GI50 [28]: 1210 nM
- TGI [28]: 7.68 µM
- GI50 [29]: 528 nM
- TGI [29]: 15.8 µM
- GI50 [30]: 829 nM
- TGI [30]: 16.4 µM
- GI50 [31]: 957 nM
- TGI [31]: 25.8 µM
- GI50 [32]: 367 nM
- TGI [32]: 25.1 µM
- GI50 [33]: 316 nM
- TGI [33]: 13.1 µM
- GI50 [34]: 262 nM
- TGI [34]: 718 nM
- GI50 [35]: 420 nM
- TGI [35]: > 100 µM
- GI50 [36]: 458 nM
- TGI [36]: 12.1 µM
- GI50 [37]: 461 nM
- TGI [37]: 40.9 µM
- GI50 [38]: 298 nM
- TGI [38]: 1730 nM
- GI50 [39]: 404 nM
- TGI [39]: 14.6 µM
- GI50 [40]: 428 nM
- TGI [40]: 24.1 µM
- GI50 [41]: 725 nM
- TGI [41]: > 100 µM
- GI50 [42]: 334 nM
- TGI [42]: > 100 µM
- GI50 [43]: 432 nM
- TGI [43]: > 100 µM
- GI50 [44]: 256 nM
- TGI [44]: 36 µM
- GI50 [45]: 401 nM
- TGI [45]: 25 µM
- GI50 [46]: 377 nM
- TGI [46]: 15.9 µM
- GI50 [47]: 318 nM
- TGI [47]: 10.6 µM
- GI50 [48]: 289 nM
- TGI [48]: 2370 nM
- GI50 [49]: 611 nM
- TGI [49]: 27.6 µM
- GI50 [50]: 291 nM
- TGI [50]: > 100 µM
- GI50 [51]: 466 nM
- TGI [51]: 27 µM
- GI50 [52]: 383 nM
- TGI [52]: > 100 µM
- GI50 [53]: 383 nM
- TGI [53]: 13.6 µM
- GI50 [54]: 408 nM
- TGI [54]: 21.7 µM
- GI50 [55]: 4.61 µM
- TGI [55]: 83.8 µM
- GI50 [56]: 628 nM
- TGI [56]: 37.3 µM
- GI50 [57]: 369 nM
- TGI [57]: 20.4 µM
